Experimental data from patent publication US6057286A, “Identification and use of selective inhibitors of glycogen synthase kinase 3” (Chiron Corporation, priority 1997, dated 2000).

Legend:
Drosophila cells = experiment: β-catenin stabilization assay of intracellular GSK3 activity (western blot); type: cell-based; conditions: addition to Drosophila cells; detected on a western blot
Description: Other assays that test functional GSK3 also provide a further test of intracellular GSK3 activity. These assays rely on the ability to observe indirect consequences of GSK3 activity within cells. An example of such an assay involves β-catenin stabilization. Cellular GSK3 activity leads to the destabilization of cytosolic pools of β-catenin in certain types of cell. Consequently, inhibition of GSK3 results in β-catenin stabilization and accumulation, which be detected on a western blot. […] Similarly, LiCl in the cell culture medium causes an increase in intracellular β-catenin levels as described in Stambolic et al, Cur. Biol. 6(12): 1664-8 (1996).

HepG2 liver cells = experiment: Insulin- and glucose-stimulated glycogen synthase activity in stable tissue culture cells; type: cell-based; conditions: addition of insulin and glucose, in the presence of the GSK3 inhibitor
Description: Assays for glucose uptake and glycogen synthesis can be conducted as described for cell-based assays generally. To measure glucose uptake and glycogen synthesis, a variety of stable tissue culture cell lines that respond to insulin stimulation by increasing the synthesis of glycogen and increasing the rate of glucose uptake from the medium can be used. These include HepG2 liver cells, CHO-IR cells, and Hirc cells. Under appropriate conditions the addition of insulin and glucose to HepG2 cells stimulates glycogen synthase activity and this stimulation of potentiated in the presence of the GSK3 inhibitor iodotubercidin. The response of glucose uptake in these cells to insulin, glucose and inhibitor can be as much as six fold, and consequently this assay is useful to detect the ability of inhibitors to potentiate glycogen synthesis in cells.

## Nc1ncnc2c1c(I)cn2[C@@H]1O[C@H](CO)[C@@H](O)[C@H]1O [iodotubercidin]
Drosophila cells
  β-catenin accumulation: leads to β-catenin accumulation
HepG2 liver cells
  stimulation of glycogen synthase activity by insulin and glucose: potentiated
